Measured values as given in patent US20220105170A1 (priority 2019, published 2022).
Values joined by “and” are separate entries in the source; they are usually repeats but may differ in a detail not shown here. Identical values can stand only once.

system: peripheral blood lymphocytes collected from swine exposed to ASFV; assay type: cell-based

| Substance | Number of Spots |
| --- | --- |
| 534 (RYFTFKFAAHL) [compound 534] | 12 |
| 1390 (QQMLTRHIY) [compound 1390] | 12 |
| 1651 (RFSRPGNNY) [compound 1651] | 17 |
| 2265 (RYRHFKDWRLI) [compound 2265] | 13 |
| 1288 (HFNAHFKPY) [compound 1288] | 16 |
| 328 (KNHLYWRV) [compound 328] | 13 |
| 1873 (KLYTAALGVY) [compound 1873] | 12 |
| 971 (LTLSSNYFY) [compound 971] | 12 |
| 1685 (NINRLMPYF) [compound 1685] | 12 |
| 85 (KSELSYWCTY) [compound 85] | 20 |
| 1347 (LMSALKWPI) [compound 1347] | 17 |
| 1658 (AFINSTDFLY) [compound 1658] | 12 |
| 2197 (KVRNKAIELY) [compound 2197] | 17 |
| 1159 (MAEIRFLSM) [compound 1159] | 12 |
| 2252 (AIQYFYQRYR) [compound 2252] | 13 |
| 960 (ETTLINCTYL) [compound 960] | 13 |
| 1187 (FSEHTKFFSY) [compound 1187] | 15 and 16 |
| 1941 (AIEEEDIQF) [compound 1941] | 12 |
| 1436 (NKANKAFYI) [compound 1436] | 13 |
| 2134 (KNYFRFFKK) [compound 2134] | 16 |
| 1531 (MVFNQLIASY) [compound 1531] | 12 |
| 925 (KKQKHVSLL) [compound 925] | 14 |
| 1120 (SLPDVSTLPY) [compound 1120] | 13 |
| 842 (SSMHSGMLY) [compound 842] | 13 and 23 |
| 2125 (TAIQKNYFR) [compound 2125] | 14 |

| Substance | Number of Spots |
| --- | --- |
| 1507 (ATVSAIELEY) [compound 1507] | 13 |
| 1020 (QTNCQLYFF) [compound 1020] | 18 |
| 241 (MVYNFNTLY) [compound 241] | 16 |
| 743 (SKFCNHMFF) [compound 743] | 16 |
| 1761 (SVYHVQEEL) [compound 1761] | 12 |
| 1523 (STAQVHLDF) [compound 1523] | 14 |
| 1501 (ALDLSLIGFY) [compound 1501] | 14 |
| 2251 (AIQYFYQRY) [compound 2251] | 12 |
| 2185 (HIFYRPLYRY) [compound 2185] | 15 |
| 1630 (AMLEFKKFF) [compound 1630] | 12 |
| 962 (TTLINCTY) [compound 962] | 12 |
| 2211 (ASFKEGLSL) [compound 2211] | 12 |
| 1151 (NLSEVVTAY) [compound 1151] | 16 |
| 2126 (TAIQKNYFRF) [compound 2126] | 13 |
| 1265 (INRNYYPYY) [compound 1265] | 12 |
| 889 (MMHYPTFNW) [compound 889] | 16 |
| 557 (LIEFLTGFF) [compound 557] | 16 |
| 1370 (GAMMITFAL) [compound 1370] | 14 |
| 2171 (FIRLYPHIFY) [compound 2171] | 18 |
| 1627 (GTDLYQSAM) [compound 1627] | 12 |
| 2213 (KTSSNIILY) [compound 2213] | 12 |
| 1150 (KSQDTLHRF) [compound 1150] | 12 |
| 756 (FTDNLCFMM) [compound 756] | 19 |
| 1759 (VQLANSSVYY) [compound 1759] | 15 |
| 1188 (VSNILHSVF) [compound 1188] | 13 |

| Substance | Number of Spots |
| --- | --- |
| 1835 (KILGLLLAY) [compound 1835] | 21 |
| 1212 (TFLLKKRMEL) [compound 1212] | 19 |
| 1528 (KTYTLLTKPY) [compound 1528] | 13 |
| 1706 (RLQTPIPVY) [compound 1706] | 13 |
| 1580 (SNMKQFCKI) [compound 1580] | 12 |
| 888 (TMMHYPTFNW) [compound 888] | 12 |
| 329 (ASLDYGMNL) [compound 329] | 12 |
| 1468 (ITYLNNMGY) [compound 1468] | 13 |
| 2183 (PHIFYRPLYR) [compound 2183] | 15 |
| 2159 (RIHTRFGQYY) [compound 2159] | 15 |
| 608 (INCFNYCILY) [compound 608] | 13 |
| 2146 (KLLTHFNIYR) [compound 2146] | 16 |
| 1823 (YTKFFNCPF) [compound 1823] | 25 |
| 2142 (RFFKKLLTH) [compound 2142] | 12 |
| 1049 (SLEFNTFYAF) [compound 1049] | 15 |
| 744 (SKFCNHMFFR) [compound 744] | 18 |
| 1196 (KEMQDYSLTF) [compound 1196] | 17 |
| 1952 (LSKNIAAEY) [compound 1952] | 17 |
| 1459 (KITSVTEFY) [compound 1459] | 19 |
| 1006 (KRKKHVEEI) [compound 1006] | 13 |
| 283 (YTHLNTWRL) [compound 283] | 18 |
| 478 (STYTEIVKY) [compound 478] | 33 and 19 |
| 865 (RRVHASYPGY) [compound 865] | 15 |
| 1989 (RMHIYETNLY) [compound 1989] | 14 |
| 1033 (SVSPVFTSGY) [compound 1033] | 16 |

| Substance | Number of Spots |
| --- | --- |
| 1556 (QVVFHAGSLY) [compound 1556] | 13 |
| VLIEFLTGFF [SEQ ID NO. 554] | 16 |
| 369 (KHTLQWLGLY) [compound 369] | 16 |
| 921 (SVLLRDSGYY) [compound 921] | 14 |
| 607 (NINCFNYCI) [compound 607] | 12 |
| 64 (KVNNSMPLI) [compound 64] | 32 |
| 2194 (RSCDYAPGFY) [compound 2194] | 12 |
| 1864 (SMPMSMIGPY) [compound 1864] | 13 |
| 321 (KRHKNHLY) [compound 321] | 14 |
| 884 (ISAINHFNY) [compound 884] | 19 |
| 1279 (YPYYIYKIF) [compound 1279] | 12 |
| 847 (YINFRLKTFY) [compound 847] | 21 |
| 1295 (SQMGAHGQL) [compound 1295] | 17 |
| 1413 (ISSMSVSTFW) [compound 1413] | 12 |
| 1517 (ATKKALIHF) [compound 1517] | 13 |
| 1736 (VTQRNQNYF) [compound 1736] | 13 |
| 449 (HTIYQSYSL) [compound 449] | 19 |
| 585 (VVDDVPSIDY) [compound 585] | 12 |
| 1828 (RSQTECGPY) [compound 1828] | 14 |
| 1753 (YFDTFANAM) [compound 1753] | 13 |
| 66 (CTYGEGNGHY) [compound 66] | 62 |
| 1544 (GSLYPTQFDY) [compound 1544] | 14 |
| 923 (VLLRDSGYY) [compound 923] | 14 and 16 |
| 1388 (LVYELPAPF) [compound 1388] | 14 |
| 297 (LRHNFTKAIHY) [compound 297] | 16 |

| Substance | Number of Spots |
| --- | --- |
| 2266 (YRHFKDWRL) [compound 2266] | 14 |
| 1519 (FGMMNQTNY) [compound 1519] | 13 |
| 2037 (MCGKRNCPLY) [compound 2037] | 12 |
| 724 (HSDMYSVIFNI) [compound 724] | 15 |
| 1065 (KTRGTRLFF) [compound 1065] | 36 |
| 725 (SDMYSVIFNI) [compound 725] | 15 |
| 1111 (RTDFVWVADL) [compound 1111] | 13 |
| 1749 (TLDFDRMWY) [compound 1749] | 15 |
| 2118 (MMQTAIQKNYF) [compound 2118] | 13 |
| 285 (QAMLSSIQYY) [compound 285] | 14 |
| 1228 (SSYNRSLLH) [compound 1228] | 15 |
| 2241 (YNLTEAIQYF) [compound 2241] | 14 |
| 1204 (MQDYSLTF) [compound 1204] | 17 |
| 1227 (ETYARLSSY) [compound 1227] | 12 |
| 1750 (SMSYFDGKTEY) [compound 1750] | 17 |
| 1628 (SAMLEFKKF) [compound 1628] | 12 |
| 1024 (SQKLVQLFY) [compound 1024] | 20 |
| 447 (NIIHTIYQSY) [compound 447] | 331 |
| 467 (QAYALEYAM) [compound 467] | 17 |
| 1824 (SMMDFERVHY) [compound 1824] | 14 |
| 1814 (YTIHYSMPY) [compound 1814] | 17 |
| 2038 (CGKRNCPLYY) [compound 2038] | 12 |
| 469 (HVVQRLGLY) [compound 469] | 14 |
| 625 (SVFMWICIY) [compound 625] | 15 |
| 635 (IRGRSLNMLSL) [compound 635] | 12 |
